Source: patent US10495627B2, “Apparatus and method for early diagnosis of cell death” (LYNCEE TEC S.A., priority 2010, dated 2019)
“Also recorded” adds a separate entry of the source.

Tests used:
[1] = system: primary cultures of mouse cortical neurons; test: Cell viability tested with trypan blue 0.4% reagent after glutamate stimulation; type: cell-based; conditions: for trypan blue staining / time at which nucleus was stained by trypan blue (cell death): 90 seconds; for time at which cell death was confirmed with trypan blue: 120 seconds
Method: (§1) In order to validate the measurement principle proposed in this application, the cell viability is also tested with trypan blue 0.4% reagent, to enable comparative measurements. The dye relies on probing the cell membrane integrity, which becomes permeable to the color compound at a certain level after cell death mechanisms started. After reagent wash-out, the cell nuclei of non-viable cells are consequently stained in blue, as the dye fixes on DNA material. Excitotoxic effects were studied during the experiments, by applying glutamate pulses at different concentration to the cells. The excitation solutions were prepared with concentrations ranging between 25 μM and 100 μM, depending on the type of experiment. Perfusion changes were performed by washing the chamber with a micropipette, making it possible to replace the perfusion medium through typically two washes of the medium.
In order to enable color measurement for cell viability assessment with the reagent, a flip mirror is inserted after the MO, so that the intensity image could also be recorded in focus with a color camera. When performing trypan blue staining, the illumination is changed to employ an incoherent halogen white light source to enable color measurement; this implies that during dye probing, no DHM measurement is performed, yielding part of unmeasured phase signal during time monitoring. Image merging between the two measurement techniques could be done through calibration of the system by imaging an object whose shape is well-known.
Brightfield color images of the culture, enabling the assessment through the trypan blue dye as a control experiment, are presented in FIGS. 4(b-c), respectively at t=30 min before the excitotoxic stimulation and t=290 min, where non viable cells are identified by the blue staining.

[2] = system: primary cultures of mouse cortical neurons; test: Mean phase value on cell bodies monitored over time by digital holographic microscopy (DHM) after glutamate-induced excitotoxic stimulation; type: cell-based
Source text: The particular implementation is a transmission DHM setup making possible to monitor cells in time through phase measurement. The sketch of the optical arrangement of the measurement setup is shown in FIG. 3, where the light emitted by a light source is split into two beams and recombined to generate an interference producing a hologram on the camera. […] Phase images are reconstructed by a numerical method for off-axis digital hologram reconstruction.
In the different experiments described below, the optical property, employed for cell death detection is the mean phase value measured on cell bodies and monitored during time. The phase value is intrinsically a relative measurement that has to be compared with a phase reference, usually taken as the phase shift induced by the perfusion medium. Physically, the phase value φ can thus be related to an optical path length (OPL) as
[formula] where the indices i and m correspond respectively to the intracellular content of the cell and to the perfusion medium, h is the height of the cell at position (x, y) and n is the mean refractive index (RI) along the optical axis. The phase is measured by calculating a spatial averaging of the phase value on a constant surface contained in the cell body, to which a reference phase value measured on a zone of the field of view containing no biological material has been subtracted.
The meaning of the phase measured with an interferometric method in this context is dependent on the height of the cell and on its intracellular RI. Therefore, the phase is linked both to the cell volume phenotype (through cell height), and to the intracellular content of cells phenotype (through RI), and thus indirectly to the osmotic regulation of the cell. The phase signal is therefore an indicator of cell volume regulation through both parameters, and can be indirectly linked to homeostasis through osmotic phenomena.
This particular study is performed on primary cultures of mouse cortical neurons, mounted on coverslips for optical measurement. Before experiment, coverslips are mounted on a perfusion chamber used to apply the different solutions to the cells, which are immersed in a HEPES-buffered standard physiological perfusion medium. As an example of application of cell death detection through volume regulation, we present in the following a detection of neuronal death induced through glutamate-induced excitotoxic stimulation, ultimately leading to cell death. The glutamate is a neurotransmitter activating neuronal receptors, leading under strong exposure to high level of intracellular calcium concentration, which can lead to death pathway triggering if not regulated properly.
as §1
The mean phase value measured on four cell bodies is shown in FIG. 4(a), where the reagent has been applied several times on the culture with an interval of approximately one hour. […]

[3] = glutamate 50 μM during 90 seconds, cell 4

N[C@@H](CCC(=O)O)C(=O)O [glutamate]
trypan blue staining ([1]; glutamate 25 μM, up to 4 hours and 30 minutes after stimulation): all cells being unstained | time at which nucleus was stained by trypan blue (cell death) ([1]; glutamate 50 μM, cell 1): 116 min | time at which nucleus was stained by trypan blue (cell death) ([1]; glutamate 50 μM, cell 2): 207 min | time at which nucleus was stained by trypan blue (cell death) ([1]; glutamate 50 μM, cell 3): 252 min | trypan blue staining ([1]; glutamate 50 μM, cell 4, several hours after exposure): remained unstained with a healthy morphology | time at which cell death was confirmed with trypan blue ([1]; glutamate 50 μM, cell 3): 385 min | time at which cell death was confirmed with trypan blue ([1]; glutamate 50 μM, cells 1 and 2): 323 min | phase variations [2, 3]: below 10 ° | time to retrieve the same mean phase value [2, 3]: approximately 10 minutes | phase signal drop ([2]; glutamate 50 μM during 90 seconds, three of four cells (cells 1 to 3)): approximately 40 ° | phase response ([2]; glutamate pulse 25 μM, 90 seconds, n=10 cells): reversible responses in phase; also recorded: only recovery curves | phase response ([2]; glutamate pulse 50 μM, 90 s): mixed responses between recovery and death | phase response ([2]; glutamate pulse 50 μM, 120 s): irreversible signals
